From US11628162B2, “Methods of treating cancer with an FGFR inhibitor” (Incyte Corporation, priority 2019, dated 2023)
Entries after “also recorded” stand apart in the source; their conditions may differ. Values belong to the molecule of their own block, whether it stands above or below them.

Legend:
human liver microsomes = settings: 0.5 h, 1 μM, pH 7.4
Method: Aliquots were taken at 0, 10, 20, and 30 minutes and denatured with methanol. After centrifugation to remove the denatured proteins, the resulting supernatants were analyzed by LC/MS.

[1] = human, in vivo, po
CYP1A2 = biological target: T1, CYP1A2 (Homo sapiens, UniProt P05177); experiment: In vitro metabolism of pemigatinib by recombinant human CYP1A2; type: in vitro ADME
T1 sequence (P05177 1-516): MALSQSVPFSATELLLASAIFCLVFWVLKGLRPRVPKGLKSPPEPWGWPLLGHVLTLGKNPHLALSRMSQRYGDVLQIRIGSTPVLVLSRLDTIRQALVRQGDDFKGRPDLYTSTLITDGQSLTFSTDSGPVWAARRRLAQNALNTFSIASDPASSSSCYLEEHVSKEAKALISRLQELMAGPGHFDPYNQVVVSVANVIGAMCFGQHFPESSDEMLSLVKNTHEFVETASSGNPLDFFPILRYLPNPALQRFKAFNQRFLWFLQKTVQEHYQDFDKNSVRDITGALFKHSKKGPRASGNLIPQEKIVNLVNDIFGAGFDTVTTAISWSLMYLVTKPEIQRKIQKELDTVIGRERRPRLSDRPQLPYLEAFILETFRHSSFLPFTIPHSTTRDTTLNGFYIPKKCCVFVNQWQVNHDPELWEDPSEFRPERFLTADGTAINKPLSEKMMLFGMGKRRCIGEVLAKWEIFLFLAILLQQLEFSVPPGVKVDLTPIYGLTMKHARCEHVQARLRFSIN
Method: (§1) In vitro metabolism studies were conducted to determine the human cytochrome P450 (CYP) isozyme(s) capable of metabolizing pemigatinib.
(§2) In vitro metabolism studies were conducted to determine the individual human recombinant CYP isozymes capable of metabolizing pemigatinib (1 μM) and included CYP1A2, CYP2B6, CYP2C8, CYP2C9, CYP2C19, CYP2D6, or CYP3A4.

CYP2B6 = biological target: T2, CYP2B6 (Homo sapiens, UniProt P20813); experiment: In vitro metabolism of pemigatinib by recombinant human CYP2B6; type: in vitro ADME
T2 sequence (P20813 1-491): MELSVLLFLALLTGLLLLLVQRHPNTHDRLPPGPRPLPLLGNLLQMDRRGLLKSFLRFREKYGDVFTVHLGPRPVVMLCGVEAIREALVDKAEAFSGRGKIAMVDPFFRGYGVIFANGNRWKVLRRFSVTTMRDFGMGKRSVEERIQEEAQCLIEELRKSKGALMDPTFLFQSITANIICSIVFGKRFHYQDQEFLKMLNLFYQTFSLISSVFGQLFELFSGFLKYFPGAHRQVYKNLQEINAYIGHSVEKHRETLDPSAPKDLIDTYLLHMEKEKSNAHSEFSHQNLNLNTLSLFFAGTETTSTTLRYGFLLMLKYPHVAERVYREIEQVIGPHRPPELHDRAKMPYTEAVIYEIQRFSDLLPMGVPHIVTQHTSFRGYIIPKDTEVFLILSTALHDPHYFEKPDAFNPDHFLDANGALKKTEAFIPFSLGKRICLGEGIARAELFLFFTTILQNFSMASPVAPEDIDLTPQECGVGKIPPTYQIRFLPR
Method: as §1, §2

CYP2C8 = biological target: T3, CYP2C8 (Homo sapiens, UniProt P10632); experiment: In vitro metabolism of pemigatinib by recombinant human CYP2C8; type: in vitro ADME
T3 sequence (P10632 1-490): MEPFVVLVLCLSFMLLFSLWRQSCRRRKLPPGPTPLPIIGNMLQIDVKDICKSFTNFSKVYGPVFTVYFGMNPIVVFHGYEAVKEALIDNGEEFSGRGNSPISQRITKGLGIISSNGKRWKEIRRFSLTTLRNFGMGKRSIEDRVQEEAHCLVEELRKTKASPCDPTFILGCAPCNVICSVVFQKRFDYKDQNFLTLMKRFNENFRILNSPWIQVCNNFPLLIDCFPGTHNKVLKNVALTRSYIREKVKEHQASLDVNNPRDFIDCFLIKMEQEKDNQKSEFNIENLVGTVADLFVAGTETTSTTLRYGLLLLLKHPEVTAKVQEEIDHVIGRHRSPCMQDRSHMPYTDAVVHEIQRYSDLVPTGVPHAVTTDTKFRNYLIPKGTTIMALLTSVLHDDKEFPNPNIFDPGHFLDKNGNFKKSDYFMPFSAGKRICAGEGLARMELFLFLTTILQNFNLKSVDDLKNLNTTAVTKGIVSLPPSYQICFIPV
Method: as §1, §2

CYP2C9 = CYP2C9 (Homo sapiens, UniProt P11712); experiment: In vitro metabolism of pemigatinib by recombinant human CYP2C9; type: in vitro ADME
Method: as §1, §2

CYP2C19 = CYP2C19 (Homo sapiens, UniProt P33261); experiment: In vitro metabolism of pemigatinib by recombinant human CYP2C19; type: in vitro ADME
Method: as §1, §2

CYP2D6 = CYP2D6 (Homo sapiens, UniProt P10635); experiment: In vitro metabolism of pemigatinib by recombinant human CYP2D6; type: in vitro ADME
Method: as §1, §2

CYP3A4 = biological target: T4, CYP3A4 (Homo sapiens, UniProt P08684); experiment: In vitro metabolism of pemigatinib by recombinant human CYP3A4; type: in vitro ADME
T4 construct: host or cells: in silico (Simcyp virtual population); observed values come from healthy volunteers
Method: as §1, §2

[2] = Mass balance and metabolite identification (human ADME) data; type: in vivo
[3] = Phase I dose escalation and dose expansion study, observed PK in cancer patients; type: in vivo; settings: human, plasma, geometric mean; for AUC: read-out: Observed AUCss; for Cmax: read-out: Observed Cmax, ss
Method: The pemigatinib PBPK model was developed from healthy volunteer was used to describe cancer patients PK data from phase I dose escalation and dose expansion study (6-20 mg). The model was used to predict pemigatinib plasma concentration-time curves in cancer patients after multiple oral dose of 6, 9, 13.5 and 20 mg pemigatinib because only one patient was dosed for 1, 2 and 4 mg, respectively.

[4] = Permeability of pemigatinib (statement, no method given); type: in vitro ADME
clinical = settings: human, plasma
[5] = Phase 1 drug-drug interaction study: safety and tolerability (TEAEs)
Method: In addition, this study also evaluates the safety and tolerability of pemigatinib when administered alone or in combination with itraconazole or rifampin. Safety and tolerability is assessed by monitoring adverse events, vital signs, physical examinations, 12-lead ECGs, and clinical laboratory blood and urine sample assessments. Pharmacokinetic endpoints include tmax, AUC0-t, AUC0-∞, t1/2, CL/F, and Vz/F.
Vital signs (oral temperature; respiratory rate; automated, seated blood pressure; and pulse) are obtained at screening, check-in, and follow-up; at 0 hour (predose) on Days 1 and 8; and at approximately 1, 2, 3, 6, and 24 hours after the morning dose on Day 4 and Day 9. Clinical safety laboratory assessments are performed at screening; on Days −1, 2, 5, 9, 10, and 11; and at follow-up. A serum pregnancy is obtained at screening and follow-up. A urine pregnancy test is obtained at check-in for each visit for all women. On Day 8, a 12-lead ECG is performed predose, 2 hours postdose, and approximately 24 hours postdose. On other days, 12-lead ECGs are performed only at predose.
Vital signs (oral temperature; respiratory rate; automated, seated blood pressure; and pulse) are obtained at screening, check-in and follow-up; at 0 hour (predose) on Days 1 and 11; and at approximately 1, 2, 3, 6, and 24 hours after the morning dose on Days 4, 10, and 12. Clinical safety laboratory assessments are performed at screening; on Days −1, 2, 8, and 13; and at follow-up. A serum pregnancy test is obtained at screening and follow-up. A urine pregnancy test is obtained at check-in for each visit for all women. On Day 11, a 12-lead ECG is performed predose, 2 hours postdose, and approximately 24 hours postdose. On other days, 12-lead ECGs is performed only at predose.

[6] = Phase 1 drug-drug interaction study: single-dose pemigatinib PK alone or with itraconazole or rifampin
[7] = Cohort 1 (n=18): pemigatinib 4.5 mg alone and with itraconazole
[8] = Cohort 1: 4.5 mg pemigatinib alone or with itraconazole 200 mg QD, geometric mean
[9] = Cohort 1: 4.5 mg pemigatinib alone or with itraconazole 200 mg QD, mean ± SD
[10] = Cohort 2: 13.5 mg pemigatinib alone or with rifampin 600 mg QD, geometric mean
[11] = Cohort 2: 13.5 mg pemigatinib alone or with rifampin 600 mg QD, mean ± SD
[12] = pemigatinib with/without itraconazole, geometric mean

T4 sequence (P08684 whole entry): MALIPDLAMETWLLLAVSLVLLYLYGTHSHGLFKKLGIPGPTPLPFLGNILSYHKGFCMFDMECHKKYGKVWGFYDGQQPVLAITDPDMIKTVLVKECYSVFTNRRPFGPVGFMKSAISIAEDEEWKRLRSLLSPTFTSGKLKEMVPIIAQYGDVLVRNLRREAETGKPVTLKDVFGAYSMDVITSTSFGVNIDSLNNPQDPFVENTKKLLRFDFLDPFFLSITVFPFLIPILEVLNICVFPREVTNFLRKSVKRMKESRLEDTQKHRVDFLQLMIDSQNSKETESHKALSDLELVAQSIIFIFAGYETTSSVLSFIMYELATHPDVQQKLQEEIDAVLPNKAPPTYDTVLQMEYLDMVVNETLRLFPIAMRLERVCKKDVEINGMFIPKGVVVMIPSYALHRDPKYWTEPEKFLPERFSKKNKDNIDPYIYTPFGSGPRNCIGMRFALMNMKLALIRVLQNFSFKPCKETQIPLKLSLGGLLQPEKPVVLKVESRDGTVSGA
Chain of CYP2D6 (P10635 whole entry): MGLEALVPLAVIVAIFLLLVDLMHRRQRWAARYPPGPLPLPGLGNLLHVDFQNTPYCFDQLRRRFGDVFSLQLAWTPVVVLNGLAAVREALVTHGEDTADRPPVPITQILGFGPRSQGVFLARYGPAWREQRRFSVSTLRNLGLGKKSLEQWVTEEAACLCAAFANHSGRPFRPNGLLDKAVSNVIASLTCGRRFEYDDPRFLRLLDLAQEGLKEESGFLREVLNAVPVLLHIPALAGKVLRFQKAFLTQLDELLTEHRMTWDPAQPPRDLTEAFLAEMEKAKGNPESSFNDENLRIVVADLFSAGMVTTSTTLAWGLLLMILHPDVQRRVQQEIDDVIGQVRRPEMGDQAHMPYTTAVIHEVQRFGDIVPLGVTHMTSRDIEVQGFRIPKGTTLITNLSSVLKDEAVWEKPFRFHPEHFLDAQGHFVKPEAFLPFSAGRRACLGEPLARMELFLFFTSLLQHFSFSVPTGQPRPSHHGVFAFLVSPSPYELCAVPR
Chain of CYP2C9 (P11712 whole entry): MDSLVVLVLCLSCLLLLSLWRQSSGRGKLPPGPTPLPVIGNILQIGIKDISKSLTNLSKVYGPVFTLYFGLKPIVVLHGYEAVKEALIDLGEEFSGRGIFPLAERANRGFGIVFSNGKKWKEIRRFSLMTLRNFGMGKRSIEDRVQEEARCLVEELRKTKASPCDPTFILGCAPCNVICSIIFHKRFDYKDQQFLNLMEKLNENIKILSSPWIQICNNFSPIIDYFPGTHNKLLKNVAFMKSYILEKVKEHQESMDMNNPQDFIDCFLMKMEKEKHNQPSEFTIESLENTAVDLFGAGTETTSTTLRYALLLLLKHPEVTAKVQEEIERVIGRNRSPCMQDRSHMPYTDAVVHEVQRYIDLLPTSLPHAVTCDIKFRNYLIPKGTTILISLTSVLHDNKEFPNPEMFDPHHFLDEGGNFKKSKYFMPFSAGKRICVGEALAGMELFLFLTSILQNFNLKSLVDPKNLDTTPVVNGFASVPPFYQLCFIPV
Chain of CYP2C19 (P33261 whole entry): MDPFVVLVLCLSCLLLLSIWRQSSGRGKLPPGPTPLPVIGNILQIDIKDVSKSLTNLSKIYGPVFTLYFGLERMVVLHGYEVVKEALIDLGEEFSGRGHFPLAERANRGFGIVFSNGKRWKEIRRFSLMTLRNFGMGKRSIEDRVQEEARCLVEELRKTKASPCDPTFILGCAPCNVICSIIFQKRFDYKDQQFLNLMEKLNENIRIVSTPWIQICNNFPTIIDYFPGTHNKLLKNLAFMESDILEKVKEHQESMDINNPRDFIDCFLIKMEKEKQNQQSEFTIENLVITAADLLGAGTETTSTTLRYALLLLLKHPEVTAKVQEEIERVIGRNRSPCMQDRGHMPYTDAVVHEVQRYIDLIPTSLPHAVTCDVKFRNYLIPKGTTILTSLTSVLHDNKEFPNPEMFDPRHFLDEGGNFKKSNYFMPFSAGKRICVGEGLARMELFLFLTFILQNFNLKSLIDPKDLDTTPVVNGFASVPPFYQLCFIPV

Mean Percent of Pemigatinib Remaining After 30-Minute Incubation (N = 3) (human liver microsomes): 67 ± 1%
SMILES: Cc1nc2c([nH]1)c(=O)n(C)c(=O)n2Cc1ccco1 [Furafylline]

Pemigatinib AUC Ratio, Observed [1]: 1.88
Pemigatinib Cmax Ratio, Observed [1]: 1.17
SMILES: CCC(C)n1ncn(-c2ccc(N3CCN(c4ccc(OCC5COC(Cn6cncn6)(c6ccc(Cl)cc6Cl)O5)cc4)CC3)cc2)c1=O (stereo not drawn) [Itraconazole, reference compound]

SMILES: CCN1C(=O)N(c2c(F)c(OC)cc(OC)c2F)Cc2cnc3[nH]c(CN4CCOCC4)cc3c21 [Pemigatinib, 3-(2,6-difluoro-3,5-dimethoxyphenyl)-1-ethyl-8-(morpholin-4-ylmethyl)-1,3,4,7-tetrahydro-2H-pyrrolo[3′,2′: 5,6]pyrido[4,3-d]pyrimidin-2-one]
Extent of in vitro metabolism by CYP1A2 (in words) (CYP1A2): negligible
Average Percent (N = 2) of Pemigatinib Remaining vs Control (30 mins) (CYP1A2; recombinant CYP1A2, pemigatinib 1 μM, 30 min): 92%
Extent of in vitro metabolism by CYP2B6 (in words) (CYP2B6): negligible
Average Percent (N = 2) of Pemigatinib Remaining vs Control (30 mins) (CYP2B6; recombinant CYP2B6, pemigatinib 1 μM, 30 min): 96%
Extent of in vitro metabolism by CYP2C8 (in words) (CYP2C8): negligible
Average Percent (N = 2) of Pemigatinib Remaining vs Control (30 mins) (CYP2C8; recombinant CYP2C8, pemigatinib 1 μM, 30 min): 94%
Extent of in vitro metabolism by CYP2C9 (in words) (CYP2C9): negligible
Average Percent (N = 2) of Pemigatinib Remaining vs Control (30 mins) (CYP2C9; recombinant CYP2C9, pemigatinib 1 μM, 30 min): 88%
Extent of in vitro metabolism by CYP2C19 (in words) (CYP2C19): negligible
Average Percent (N = 2) of Pemigatinib Remaining vs Control (30 mins) (CYP2C19; recombinant CYP2C19, pemigatinib 1 μM, 30 min): 95%
Extent of in vitro metabolism by CYP2D6 (in words) (CYP2D6): negligible
Average Percent (N = 2) of Pemigatinib Remaining vs Control (30 mins) (CYP2D6; recombinant CYP2D6, pemigatinib 1 μM, 30 min): 94%
Extent of in vitro metabolism by CYP3A4 (in words) (CYP3A4): predominantly metabolized; also recorded: metabolized to the greatest extent
Average Percent (N = 2) of Pemigatinib Remaining vs Control (30 mins) (CYP3A4; recombinant CYP3A4, pemigatinib 1 μM, 30 min): 14%
Oral absorption of pemigatinib (in words) ([2]; mass balance and metabolite identification data): nearly complete
Renal excretion (unchanged pemigatinib excreted in urine) ([2]; mass balance data): ~1.0 % of the dose
Unchanged pemigatinib recovered in feces ([2]; mass balance data): 1.3 % of the administered radioactive dose
AUC ([3]; multiple oral dose 6 mg): 1.11 µM·h
Cmax ([3]; multiple oral dose 6 mg): 101 nM
AUC ([3]; multiple oral dose 9 mg): 1.51 µM·h
Cmax ([3]; multiple oral dose 9 mg): 161 nM
AUC ([3]; multiple oral dose 13.5 mg): 2.6 µM·h
Cmax ([3]; multiple oral dose 13.5 mg): 175 nM
AUC ([3]; multiple oral dose 20 mg): 4.18 µM·h
Cmax ([3]; multiple oral dose 20 mg): 380 nM
Permeability of pemigatinib (in words) [4]: high permeability
AUC0-t (clinical; oral, 4.5 mg): 0.674 ± 0.246 µM·h
AUC(0-inf) (clinical; oral, 4.5 mg): 0.712 ± 0.252 µM·h
Cmax (clinical; oral, 4.5 mg): 55.2 nM
Tmax (clinical; oral, 4.5 mg): 2 h
Vd/F (clinical; oral, 4.5 mg): 244 ± 75.8 L
half-life (clinical; oral, 4.5 mg): 11.8 h
AUC(0-inf) (clinical; oral, 13.5 mg): 2.04 ± 0.556 µM·h
Cmax (clinical; oral, 13.5 mg): 176 nM
Tmax (clinical; oral, 13.5 mg): 1.5 h
Vd/F (clinical; oral, 13.5 mg): 267 ± 73.1 L
half-life (clinical; oral, 13.5 mg): 12.7 h
AUC (clinical; po, 4.5 mg): 0.672 µM·h
Cmax (clinical; po, 4.5 mg): 60.1 ± 25.3 nM
Cmax (clinical; po, 13.5 mg): 187 ± 63.3 nM
Dry mouth TEAE, % [5, 7]: (11.1) %
Dry skin TEAE, % [5, 7]: (11.1) %
Headache TEAE, % [5, 7]: (16.7) %
Nausea TEAE, % [5, 7]: (5.6) %
Paraesthesia TEAE, % [5, 7]: (0) %
Rash papular TEAE, % [5, 7]: (11.1) %
Somnolence TEAE, % [5, 7]: (11.1) %
Vision blurred TEAE, % [5, 7]: (11.1) %
Most common TEAE ([5]; both cohorts): headache
Serious TEAEs or deaths ([5]; both cohorts): no serious TEAEs or deaths
TEAEs of grade 3 or higher ([5]; both cohorts): no TEAEs of grade 3 or high
Treatment discontinuations or dose interruptions due to TEAEs ([5]; both cohorts): no treatment discontinuations or dose interruptions due to TEAEs
Safety and tolerability (overall conclusion) ([5]; healthy male and female volunteers): safe and generally well tolerated
AUC0-t [6, 8]: 0.634 µM·h
AUC0-∞ [6, 8]: 0.672 µM·h
CL/F [6, 8]: 13.7 L/h
CL/F [6, 9]: 14.5 ± 4.55 L/h
t1/2 [6, 9]: 12.1 ± 2.74 h
AUC0-t [6, 10]: 1.9 µM·h
AUC0-∞ [6, 10]: 1.96 µM·h
CL/F [6, 10]: 14.1 L/h
AUC0-t [6, 11]: 1.98 ± 0.526 µM·h
CL/F [6, 11]: 14.8 ± 4.86 L/h
t1/2 [6, 11]: 12.9 ± 2.90 h
Tmax ([6]; Cohort 2: 13.5 mg pemigatinib alone or with rifampin 600 mg QD, median): 1.0 h
Oral clearance of pemigatinib (in words) ([6]; in vivo, po): low oral clearance
AUC Ratio, Observed [6, 12]: 1.88
Cmax Ratio, Observed [6, 12]: 1.17
Cmax ([6]; read-out: Observed Cmax, single oral 13.5 mg, geometric mean): 158 nM
